The text below walks through data of US12226409B2, “Treatment of hepatocellular carcinoma” (Eisai R&D Management Co., Ltd., priority 2017, dated 2025).

The subject of one series is unresectable HCC. Nature of the series: Open-label phase 3 noninferiority study, efficacy (tumor assessment by mRECIST). The series is classed as in vivo, human. The source says: (§1) The primary endpoint was overall survival.
Patients who were eligible for enrollment had unresectable HCC with diagnosis confirmed histologically or cytologically or with diagnosis confirmed clinically in accordance with the American Association for the Study of Liver Diseases criteria. Included patients also had ≥1 measureable target lesion, based on modified Response Evaluation Criteria in Solid Tumors (Lencioni 2010); Barcelona Clinic Liver Cancer stage B or C categorization (Bruix Hepatology 2011); Child-Pugh class A; and Eastern Cooperative Oncology Group performance status ≤1. All eligible patients had controlled blood pressure (≤150/90 mm Hg), and adequate organ function. Patients with ≥50% liver occupation, clear bile duct invasion, or portal vein invasion at the main portal vein were excluded. Patients also were excluded if that had received prior systemic therapy for HCC.
(§2) Tumors were evaluated in accordance with mRECIST (Lencioni R., Semin Liver Dis., 30(1):52-60, 2010); RECIST 1.1 was applied for nonhepatic lesions (Eisenhauer, Eur J Cancer, 45(2):228-47, 2009). The liver was examined with computed tomography or magnetic resonance imaging was performed using a triphasic scanning technique. Assessments were performed every 8 weeks until disease progression. Quality of life questionnaires were administered at baseline, on day 1 of each subsequent treatment cycle, and at the off-treatment visit.
The primary endpoint of overall survival was first tested for noninferiority then for superiority. The required number of events for the primary analysis was 700 deaths, based on the fill analysis set. The HR and its 95% confidence interval (CI) were estimated from a Cox proportional hazard model with treatment group as a factor and with the analysis stratified according to the same factors applied for randomization.
A fixed-sequence procedure was followed to control the overall type I error rate of analyses for both the primary and secondary efficacy endpoints at α=0.05 (2-sided). After noninferiority was declared, secondary efficacy endpoints were tested. Differences in progression-free survival and time to progression were evaluated using a stratified log-rank test with randomization stratification factors, with the associated HR and its 95% CI. A difference in the objective response rate was evaluated using the Cochran-Mantel-Haenszel chi-square test with randomized stratification factors as strata, with associated odds ratio and its 95% CI. To assess futility, 2 interim analyses (at 30% and 70% of the target number of events) were performed using Bayesian predictive probability in a noninferiority design by the independent data monitoring committee.

Series [1] concerns unresectable hepatocellular carcinoma (HCC). Briefly: REFLECT study, efficacy per independent review. It counts as in vivo, human. How it is done: The efficacy of LENVIMA was evaluated in a randomized, open-label, multicenter, international study (REFLECT; […]) conducted in patients with previously untreated unresectable hepatocellular carcinoma (HCC).
The test system of series [2] is patients with unresectable HCC. Nature of the series: Quality of life, EORTC QLQ-C30 and QLQ-HCC18 questionnaires. The series is classed as in vivo, human. The settings on record: role functioning, pain, diarrhea (QLQ-C30); nutrition, body image (QLQ-HCC18). On the procedure: as §1, §2
Series [3] in a line: Phase 1 study of lenvatinib in HCC, plasma concentration. It counts as in vivo, human. Conditions: HCC patients 12 mg per day vs solid tumor patients 25 mg per day.
Series [4] has as its system lenvatinib-treated subjects. Briefly: Clinical studies with lenvatinib, posterior reversible encephalopathy syndrome. The settings on record: human, in vivo. The source says: Mild to severe hypertension also could be present. A magnetic resonance imaging (MRI) was necessary to confirm the diagnosis of PRES. In subjects with signs or symptoms of PRES, appropriate measures were to be taken to control blood pressure, and instructions in Table 6 were followed.

In the next series the target is T1, CYP3A4 (Homo sapiens, UniProt P08684).
T1 construct: from tissue; host or cells: human subjects (in vivo)
Nature of the series: Drug interaction with midazolam (CYP3A4 substrate). The settings on record: projected.

The target of the next series is T2, CYP1A2 (Homo sapiens, UniProt P05177).
T2 sequence (P05177 1-516): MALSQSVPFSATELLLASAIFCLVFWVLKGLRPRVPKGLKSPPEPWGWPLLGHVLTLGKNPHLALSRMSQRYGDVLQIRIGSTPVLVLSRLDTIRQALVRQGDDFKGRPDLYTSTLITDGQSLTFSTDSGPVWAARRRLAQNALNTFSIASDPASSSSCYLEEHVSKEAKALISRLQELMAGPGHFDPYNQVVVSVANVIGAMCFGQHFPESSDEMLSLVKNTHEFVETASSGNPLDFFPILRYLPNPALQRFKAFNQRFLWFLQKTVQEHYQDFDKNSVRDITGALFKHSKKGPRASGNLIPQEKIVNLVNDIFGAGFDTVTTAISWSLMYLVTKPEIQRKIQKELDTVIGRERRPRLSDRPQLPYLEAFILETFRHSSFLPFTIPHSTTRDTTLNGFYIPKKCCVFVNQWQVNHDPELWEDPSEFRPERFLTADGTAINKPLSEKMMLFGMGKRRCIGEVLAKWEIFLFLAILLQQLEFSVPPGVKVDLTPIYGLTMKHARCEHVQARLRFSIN
Briefly: In vitro CYP inhibition. The series is classed as in vitro ADME.

The next series addresses CYP2C19 (Homo sapiens, UniProt P33261). Nature of the series: In vitro CYP inhibition. It counts as in vitro ADME.
The target in another series is CYP2D6 (Homo sapiens, UniProt P10635). Briefly: In vitro CYP inhibition. The series is classed as in vitro ADME.
In series [5] the test system is CYP3A. Nature of the series: In vitro CYP inhibition. It counts as in vitro ADME.
The subject of series [6] is CYP3A. Briefly: In vitro CYP induction. It counts as in vitro ADME.
Series [7] has as its system patients with unresectable HCC. Conditions: human, in vivo.
Excerpt: Randomization was stratified according to region (Asia-Pacific or Western regions), macroscopic portal vein invasion and/or extrahepatic spread (yes or no), Eastern Cooperative Oncology Group performance status (0 or 1), and body weight (<60 kg or ≥60 kg).
Safety assessments included recording of vital signs, hematologic and biochemical laboratory testing, urinalysis, and electrocardiography.

Each structure is given as a SMILES string.

T1 sequence (P08684 whole entry): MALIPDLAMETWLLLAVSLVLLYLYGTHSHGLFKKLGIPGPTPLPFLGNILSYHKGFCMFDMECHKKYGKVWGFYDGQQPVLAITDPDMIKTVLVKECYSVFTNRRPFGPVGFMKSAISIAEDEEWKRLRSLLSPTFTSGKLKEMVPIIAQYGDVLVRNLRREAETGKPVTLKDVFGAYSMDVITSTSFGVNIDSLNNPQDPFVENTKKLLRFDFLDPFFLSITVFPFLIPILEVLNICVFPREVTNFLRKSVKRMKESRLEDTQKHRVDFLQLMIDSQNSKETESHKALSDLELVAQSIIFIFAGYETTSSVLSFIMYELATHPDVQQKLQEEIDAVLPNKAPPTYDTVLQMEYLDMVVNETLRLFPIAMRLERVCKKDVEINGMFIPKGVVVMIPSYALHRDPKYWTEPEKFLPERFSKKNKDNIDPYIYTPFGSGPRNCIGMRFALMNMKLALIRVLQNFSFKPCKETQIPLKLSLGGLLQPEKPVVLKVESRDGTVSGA
CYP2D6, sequence (P10635 whole entry): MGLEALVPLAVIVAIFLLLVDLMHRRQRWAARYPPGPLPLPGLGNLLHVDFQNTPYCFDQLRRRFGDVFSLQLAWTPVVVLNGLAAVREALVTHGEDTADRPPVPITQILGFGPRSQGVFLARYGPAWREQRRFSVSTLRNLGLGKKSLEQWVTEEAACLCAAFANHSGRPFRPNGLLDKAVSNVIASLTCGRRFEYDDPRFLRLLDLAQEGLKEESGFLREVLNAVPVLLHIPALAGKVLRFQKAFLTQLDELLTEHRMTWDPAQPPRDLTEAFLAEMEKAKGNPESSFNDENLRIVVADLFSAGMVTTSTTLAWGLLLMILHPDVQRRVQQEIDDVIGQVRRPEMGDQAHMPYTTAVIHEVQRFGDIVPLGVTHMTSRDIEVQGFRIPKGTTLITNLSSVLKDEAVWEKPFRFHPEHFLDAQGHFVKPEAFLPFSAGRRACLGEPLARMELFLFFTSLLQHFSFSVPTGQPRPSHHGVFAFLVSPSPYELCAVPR
CYP2C19, sequence (P33261 whole entry): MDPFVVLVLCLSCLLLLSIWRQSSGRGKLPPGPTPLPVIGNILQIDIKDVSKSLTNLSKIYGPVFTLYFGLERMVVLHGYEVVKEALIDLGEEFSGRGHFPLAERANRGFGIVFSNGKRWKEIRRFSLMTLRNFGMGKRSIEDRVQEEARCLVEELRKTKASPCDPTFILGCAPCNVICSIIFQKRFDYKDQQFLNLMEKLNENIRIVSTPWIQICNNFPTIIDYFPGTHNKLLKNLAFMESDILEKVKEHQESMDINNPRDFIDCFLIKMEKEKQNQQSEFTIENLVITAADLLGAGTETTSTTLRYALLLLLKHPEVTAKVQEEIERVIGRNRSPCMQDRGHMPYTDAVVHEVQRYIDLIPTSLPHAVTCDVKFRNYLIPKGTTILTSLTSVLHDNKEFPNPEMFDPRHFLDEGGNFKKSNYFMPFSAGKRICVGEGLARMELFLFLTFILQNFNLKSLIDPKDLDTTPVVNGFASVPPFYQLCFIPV

In the case of `COc1cc2nccc(Oc3ccc(NC(=O)NC4CC4)c(Cl)c3)c2cc1C(N)=O` [Lenvatinib, 4-(3-chloro-4(cyclopropylaminocarbonyl)aminophenoxy)-7-methoxy-6-quinolinecarboxamide], in the series with unresectable HCC (Full Analysis Set), the “Primary reason for discontinuation of treatment: Disease Progression” value is given as 311 (65.1) n (%). Besides, in the series on unresectable HCC (in vivo), the “Durable stable disease lasting ≥23 wk” value is reported as 167 no and the Median overall survival is 13.6 mo. For the same compound, in the series on unresectable HCC (mRECIST), the Median progression-free survival is recorded as 7.4 mo and the “Median time to progression” value is 8.9 mo. For the same compound, in [1] (in vivo), the “Median OS” value was 13.6 months. For the same compound, in series [1] (mRECIST, independent review), the “Median PFS” value stood at 7.3 months and the Objective response rate is 41%. The “time to clinically meaningful deterioration of quality of life” value in [2] is “clinically meaningful delay in deterioration”. Also, the “lenvatinib plasma concentration at 24 hours” value in series [3] was “similar”. Moreover, the “events of posterior reversible encephalopathy syndrome (PRES)” value in series [4] is “less than 1%”. In addition, the “drug-drug interaction risk with midazolam” value on CYP3A4 is “no projected significant drug-drug interaction risk”. For the same compound, the “inhibition of CYP1A2” value at CYP1A2 was “inhibits”. The “inhibition of CYP2C19” value at CYP2C19 is listed as “inhibits”. Further, at CYP2D6, the “inhibition of CYP2D6” value was “inhibits”. Moreover, the “inhibition of CYP3A” value in the series on CYP3A [5] is on record as “inhibits”. Also, the “induction of CYP3A” value in the series with CYP3A [6] is reported as “induces”. Besides, in [7], the “treatment-related fatal cerebral hemorrhage” value worked out at 3 patients, the “treatment-related fatal hepatic failure” value came to 3 patients and the “treatment-related fatal respiratory failure” value is 2 patients.
